Converted amounts (≈) assume the structure as drawn.

The subject of one test is E. coli BW25113. In words: MIC, 2-fold broth dilution, E. coli BW25113. Type of test: cell-based, Escherichia coli. As to conditions: Escherichia coli; E. coli BW25113; asterisk in column 1-10; read-out: MIC, μM 1-10. (In general: Dilution methods test growth across graded concentrations, often in twofold steps.)
What is called MIC is the lowest concentration that inhibits growth of the organism. Regarding `COc1cc(NC(=O)c2ccc(-c3ccc(C(=O)Nc4ccc(N5CCCCC5)cc4)cc3)cc2)ccc1N(C)C` [Example 128], the MIC was 1 to 10 µM (≈ 0.549 to 5.49 µg/mL).

Regarding `C[n+]1ccc(Nc2ccc(NC(=O)c3ccc(C(=O)Nc4ccc(Nc5cc[n+](C)cc5)cc4)c(Br)c3)cc2)cc1` [Example 87, 4,4′-((((2-bromoterephthaloyl)bis(azanediyl))bis(4,1-phenylene))bis(azanediyl))bis(1-methylpyridin-1-ium)], the MIC lay within 1 to 10 µM.

Staying with this test, now noted: Escherichia coli; E. coli BW25113; asterisk in column 10-50; read-out: MIC, μM 10-50.
As to `C#CCCC[N+](C)(C)c1ccc(NC(=O)c2ccc(-c3ccc(C(=O)Nc4ccc([N+](C)(C)C)c(F)c4)cc3)cc2)cc1F` [Example 118], the MIC was 10 to 50 µM.

As to `C[n+]1ccc(Oc2ccc(NC(=O)c3ccc(C(=O)Nc4ccc(Oc5cc[n+](C)cc5)cc4)cc3)cc2)cc1` [Example 13, 4,4′-(((terephthaloylbis(azanediyl))bis(4,1-phenylene))bis(oxy))bis(1-methylpyridin-1-ium)], the MIC lay in the range of 10 to 50 µM. The same measure, in the same setting: next, `C[N+](C)(C)c1ccc(NC(=O)c2ccc(-c3ccc(C(=O)Nc4ccc([N+](C)(C)C)cc4)cc3)cc2)cc1` [Example 23, 4,4′-(([1,1′-biphenyl]-4,4′-dicarbonyl)bis(azanediyl))bis(N,N,N-trimethylbenzenaminium)]: 10 to 50 µM.

Staying with this test, now noted: Escherichia coli; E. coli BW25113; asterisk in column >50; read-out: MIC, μM >50.
Turning to `COc1cc(NC(=O)c2ccc(-c3ccc(C(=O)Nc4ccc([N+]5(C)CCCCC5)cc4)cc3)cc2)ccc1[N+](C)(C)C` [Example 145], the MIC was greater than 50 µM.

Turning to `COc1cc([N+](C)(C)C)ccc1NC(=O)c1ccc(-c2ccc(C(=O)Nc3ccc([N+](C)(C)C)cc3OC)cc2)cc1` [Example 32], the minimal inhibitory concentration (MIC) is greater than 50 µM.

On to `CN(C)c1ccc(NC(=O)c2ccnc(-c3cc(C(=O)Nc4ccc(N(C)C)cc4)ccn3)c2)cc1` [Example 76, N^4,N^4′-bis(4-(dimethylamino)phenyl)-[2,2′-bipyridine]-4,4′-dicarboxamide], for which the MIC was greater than 50 µM. Consider `Cc1cc(NC(=O)c2ccc(-c3ccc(C(=O)Nc4ccnc(C)c4)cc3)cc2)ccn1` [Example 27, N^4,N^4′-bis(2-methylpyridin-4-yl)-[1,1′-biphenyl]-4,4′-dicarboxamide], for which the minimum inhibitory concentration (MIC) is greater than 50 µM.

With `C[N+](C)(C)c1ccc(NC(=O)c2ccc(-c3ccc(C(=O)Nc4ccc([N+](C)(C)C)c(Cl)c4)cc3)cc2)cc1F` [Example 131], the MIC is greater than 50 µM. The same measure, in the same setting: next, `O=C(Nc1ccc(-c2ccncc2)cc1)c1ccc(C(=O)Nc2ccc(-c3ccncc3)cc2)cc1` [Example 54, N^1,N^4-bis(4-(pyridin-4-yl)phenyl)terephthalamide]: greater than 50 µM. Still for that read-out and setting: then `C[N+](C)(C)c1ccc(NS(=O)(=O)c2ccc(-c3ccc(S(=O)(=O)Nc4ccc([N+](C)(C)C)cc4)cc3)cc2)cc1` [Example 71], with greater than 50 µM; and `Cc1cc(C(=O)Nc2ccc(N(C)C)cc2)ccc1-c1ccc(C(=O)Nc2ccc(N(C)C)cc2)cc1` [Example 40, N^4,N^4′-bis(4-(dimethylamino)phenyl)-2-methyl-[1,1′-biphenyl]-4,4′-dicarboxamide], with greater than 50 µM; and `O=C(NCc1ccncc1)c1ccc(-c2ccc(C(=O)NCc3ccncc3)cc2)cc1` [Example 92, N^4,N^4′-bis(pyridin-4-ylmethyl)-[1,1′-biphenyl]-4,4′-dicarboxamide], with greater than 50 µM. Still for that read-out and setting: next, `C#CCCCCCCCCOc1cc(NC(=O)c2ccc(-c3ccc(C(=O)Nc4ccc(N(C)C)c(F)c4)cc3)cc2)ccc1N(C)C` [Example 117]: greater than 50 µM.

As to `O=C(Nc1ccncc1)[C@H]1CC[C@H](C(=O)Nc2ccncc2)CC1` [Example 5, (E)-N^1,N^4-di(pyridin-4-yl)cyclohexane-1,4-dicarboxamide], the MIC was greater than 50 µM. For the compound `O=C(Nc1ccncc1)c1ccc2cc(C(=O)Nc3ccncc3)ccc2c1` [Example 3, N^2,N^6-di(pyridin-4-yl)naphthalene-2,6-dicarboxamide], the MIC was greater than 50 µM.

With `CN(C)c1ccc(CNC(=O)c2ccc(-c3ccc(C(=O)NCc4ccc(N(C)C)cc4)cc3)cc2)cc1` [Example 101, N^4,N^4′-bis(4-(dimethylamino)benzyl)-[1,1′-biphenyl]-4,4′-dicarboxamide], the MIC is greater than 50 µM. Still for that read-out and setting: then `Cc1cnccc1NC(=O)c1ccc(-c2ccc(C(=O)Nc3ccncc3C)cc2)cc1` [Example 28, N^4,N^4′-bis(3-methylpyridin-4-yl)-[1,1′-biphenyl]-4,4′-dicarboxamide], with greater than 50 µM; and `C[N+](C)(C)c1ccc(NC(=O)c2ccc(-c3ccc(C(=O)Nc4ccc([N+](C)(C)C)cc4)cn3)nc2)cc1` [Example 73, 4,4′-(([2,2′-bipyridine]-5,5′-dicarbonyl)bis(azanediyl))bis(N,N,N-trimethylbenzenaminium)], with greater than 50 µM; and `COc1cc(NC(=O)c2ccc(-c3ccc(C(=O)Nc4ccc(N(C)C)c(F)c4)cc3)cc2)ccc1N(C)C` [Example 97, N^4-(4-(dimethylamino)-3-fluorophenyl)-N^4′-(4-(dimethylamino)-3-methoxyphenyl)-[1,1′-biphenyl]-4,4′-dicarboxamide], with greater than 50 µM. Still for that read-out and setting: then `O=C(Nc1ccc(-c2ccc(NC(=O)c3ccncc3)cc2)cc1)c1ccncc1` [Example 81, N,N′-([1,1′-biphenyl]-4,4′-diyl)diisonicotinamide], with greater than 50 µM. As for `Cc1cc(NC(=O)c2ccc(C(=O)Nc3ccncc3)cc2)ccc1Nc1ccncc1` [Example 64, N^1-(3-methyl-4-(pyridin-4-ylamino)phenyl)-N^4-(pyridin-4-yl)terephthalamide], the MIC was greater than 50 µM. The same measure, in the same setting: then `COc1cc(NC(=O)c2ccc(-c3ccc(C(=O)Nc4ccc(N(C)C)c(OC)c4)cc3)cc2)ccc1N(C)C` [Example 33, N^4,N^4′-bis(4-(dimethylamino)-3-methoxyphenyl)-[1,1′-biphenyl]-4,4′-dicarboxamide], with greater than 50 µM; and `C[N+](C)(C)c1ccc(NC(=O)c2ccc(-c3ccc(C(=O)Nc4ccc([N+](C)(C)C)c(C(F)(F)F)c4)cc3)cc2)cc1C(F)(F)F` [Example 82, 4,4′-(([1,1′-biphenyl]-4,4′-dicarbonyl)bis(azanediyl))bis(N,N,N-trimethyl-2-(trifluoromethyl)benzenaminium)], with greater than 50 µM; and `COC(=O)Cn1cc(CCC[N+](C)(C)c2ccc(NC(=O)c3ccc(-c4ccc(C(=O)Nc5ccc([N+](C)(C)C)c(F)c5)cc4)cc3)cc2F)nn1` [Example 106], with greater than 50 µM. Still for that read-out and setting: then `C[N+](C)(C)c1ccc(NC(=O)c2ccc(-c3ccc(C(=O)Nc4ccc([N+](C)(C)C)c(F)c4)cc3)cc2)cc1` [Example 130], with greater than 50 µM; and `C[n+]1ccc(NC(=O)c2ccc(C(=O)Nc3cc[n+](C)cc3)cc2)cc1` [Example 2, 4,4′-(terephthaloylbis(azanediyl))bis(1-methylpyridin-1-ium)], with greater than 50 µM; and `Cc1cc(NC(=O)c2ccc(-c3ccc(C(=O)Nc4ccc([N+](C)(C)C)c(C)c4)cc3)cc2)ccc1[N+](C)(C)C` [Example 37, 4,4′-(([1,1′-biphenyl]-4,4′-dicarbonyl)bis(azanediyl))bis(N,N,N,2-tetramethylbenzenaminium)], with greater than 50 µM. Regarding `COC(=O)Cn1cc(C[N+](C)(C)c2ccc(NC(=O)c3ccc(-c4ccc(C(=O)Nc5ccc([N+](C)(C)C)c(F)c5)cc4)cc3)cc2F)nn1` [Example 108], the MIC is greater than 50 µM. As to `CN(C)c1ccc(NC(=O)c2ccc(-c3ccc(C(=O)Nc4ccc(N(C)C)c([N+](=O)[O-])c4)cc3C#N)cc2)cc1` [Example 148], the MIC is greater than 50 µM. Regarding `C[n+]1ccc(Nc2ccc(NC(=O)C3CCC(C(=O)Nc4ccc(Nc5cc[n+](C)cc5)cc4)CC3)cc2)cc1` (centres unmarked) [Example 69, 4,4′-((((E)-cyclohexanedicarbonylbis(azanediyl))bis(4,1-phenylene))bis(azanediyl))bis(1-methylpyridin-1-ium)], the minimal inhibitory concentration (MIC) was greater than 50 µM. With `O=C(Nc1ccc(Nc2ccncc2)cc1)[C@H]1CC[C@H](C(=O)Nc2ccc(Nc3ccncc3)cc2)CC1` [Example 60, (E)-N^1,N^4-bis(4-(pyridin-4-ylamino)phenyl)cyclohexane-1,4-dicarboxamide], the minimum inhibitory concentration (MIC) was greater than 50 µM.

As for `O=C(Nc1ccc(Nc2ccncc2)cc1)c1ccc(-c2ccccc2)cc1` [Example 15, N-(4-(pyridin-4-ylamino)phenyl)-[1,1′-biphenyl]-4-carboxamide], the minimal inhibitory concentration (MIC) was greater than 50 µM. On the same count and under the same terms, next, `CN(C)c1ccc(NC(=O)c2ccc(-c3ccc(C(=O)Nc4ccc(N(C)C)c(C#N)c4)cc3C#N)cc2)cc1` [Example 149]: greater than 50 µM; `O=S(=O)(Nc1ccncc1)c1ccc(-c2ccc(S(=O)(=O)Nc3ccncc3)cc2)cc1` [Example 26, N^4,N^4′-di(pyridin-4-yl)-[1,1′-biphenyl]-4,4′-disulfonamide]: greater than 50 µM; `O=C(Nc1ccc(Oc2ccncc2)cc1)c1ccc(C(=O)Nc2ccc(Oc3ccncc3)cc2)cc1` [Example 11, N^1,N^4-bis(4-(pyridin-4-yloxy)phenyl)terephthalamide]: greater than 50 µM. On the same count and under the same terms, then `O=C(Nc1ccncc1)c1ccc(-c2ccc(C(=O)Nc3ccncc3)cc2)cc1` [Example 7, N^4,N^4′-di(pyridin-4-yl)-[1,1′-biphenyl]-4,4′-dicarboxamide], with greater than 50 µM. As for `C[N+](C)(C)c1ccc(NC(=O)c2ccc(-c3ccc(C(=O)Nc4ccc([N+](C)(C)C)c(C#N)c4)cc3C#N)cc2)cc1` [Example 150], the minimum inhibitory concentration (MIC) was greater than 50 µM.

Take `Cc1cc(C(=O)Nc2ccc([N+](C)(C)C)cc2)ccc1-c1ccc(C(=O)Nc2ccc([N+](C)(C)C)cc2)cc1` [Example 42, 4,4′-((2-methyl-[1,1′-biphenyl]-4,4′-dicarbonyl)bis(azanediyl))bis(N,N,N-trimethylbenzenaminium)]: the MIC is greater than 50 µM.

In the case of `COc1cc(Nc2cc[n+](C)cc2)ccc1NC(=O)c1ccc(C(=O)Nc2cc[n+](C)cc2)cc1` [Example 63, 4-(4-((2-methoxy-4-((1-methylpyridin-1-ium-4-yl)amino)phenyl)carbamoyl)benzamido)-1-methylpyridin-1-ium], the minimum inhibitory concentration (MIC) was greater than 50 µM.

Source of the values: patent US20240116857A1 (St. Louis University, priority 2022, published 2024).
